Data published in patent US20230075856A1, “CYCLIC SULFAMIDE COMPOUNDS FOR TREATMENT OF HBV” (Assembly Biosciences, Inc., priority 2018, published 2023).
Read-outs that look alike come from different tables or passages of the source.

System: HBV viral load production from HepAD38 cells
Assay: Viral production from HepAD38 cells: viral load in supernatant by qPCR of the HBV core sequence
Assay type: cell-based
Conditions: 5 days incubation, qPCR of supernatant HBV DNA vs DMSO control, read-out: viral load lowering EC50 (Activity)
Protocol: Assay Measuring Activity of Test Compounds on Viral Production from HepAD38 Cells
HepAD38 cells grown in a T-150 flask (Corning, cat #: 430825) with Growth Medium (DMEM/F12 […] (Hyclone, cat #: SH30023.02), 1× Pen/Strep (Invitrogen, cat #: 15140-122), 10% FBS (Tissue Culture Biologics, cat #: 101), […] G418 (Alfa Aesar, cat #: J62671), 1 μg/mL Tetracycline (Teknova, cat #: T3320)) were detached with 0.25% trypsin-EDTA (Invitrogen, cat #: 25200-056). Tetracycline-free treatment medium (15 mL DMEM/F12 (1:1) 1× Pen/step, with 2% FBS, Tet-system approved (Clontech, cat #: 631106) were then added to mix, transferred into a 50 ml conical tube (Falcon, cat #: 21008-918,) and spun at 1300 rpm for 5 min. Pelleted cells were then re-suspended/washed with 50 mL of 1×DPBS (Invitrogen, cat #: 14190-136) 2 times and 50 mL treatment medium twice. HepAD38 cells were then re-suspended with 10 mL of treatment medium, syringed and counted. Wells of 96-well clear bottom TC plate (Corning, cat #: 3904,) were seeded at 50,000 cells/well in 180 μL of treatment medium, and 20 μL of either 10% DMSO (Sigma, cat #: D4540) as controls or a 10× solution of test compounds in 10% DMSO in treatment media was added for a final compound concentration starting at 10 μM, and plates were incubated in 5% CO2 incubator at 37° C. for 5 days.
Subsequently viral load production was assayed by quantitative PCR (qPCR) of the HBV core sequence. PCR reaction mixture containing forward primers HBV-f 5′-CTGTGCCTTGGGTGGCTIT-3′ (IDT DNA), Reverse primers HBV-r 5′-[…]-3′ (IDT DNA), Fluorescent TaqMan™ Probes HBV-probe 5′-FAM/AGCTCCAAA/ZEN/[…]/3IABkFQ-3′ (IDT DNA), 10 μL/well of PerfeCTa® qPCR ToughMix® (Quanta Biosciences, Cat #: 95114-05K), and 6 μL/well of DEPC water (Alfa Aesar, cat #: J62087) was prepared. Four μL of supernatant was added to 16 μL of the reaction mixture in a qPCR plate (Applied Biosytems, Cat #: 4309849), sealed with a film (Applied Biosystems, Cat #: 4311971), centrifuged for a few seconds, and subsequently run on an Applied Biosystems VIIA7. The PCR mixture was incubated at 45° C. for 5 min, then 95° C. for 10 min, followed by 40 cycles of 10 seconds at 95° C. and 20 seconds at 60° C. Viral load was quantified against known HBV DNA standards by using ViiA™ 7 Software. Viral load in the supernatant from wells with treated cells were compared against viral load in supernatant from DMSO control wells (≥3 per plate). Cell viability assay was performed with CellTiter-Glo Luminescent Cell Viability Assay (Promega, cat #: G7573) with modification. Mixed appropriate amount of CellTiter-Glo (CTG) 1×DPBS in a 1:1 ratio, added 100 uL of the mixture to each well followed completely removal of all supernatant in each well without touching cell surface. Incubated the plate at room temperature for 10 min on an orbital shaker, and then read the plate with a plate reader (TECAN M1000 or Envision). EC50 or CC50 values were calculated through curve-fitting of the four-parameter nonlinear-logistic-regression model (GraphPad Prism or Dotmatics). CC50 values were all >10 μM.

[1] = Hepatitis B virus, HePAD38, 120 h

With `C[C@@H](NC(=O)C1CC(C(=O)Nc2ccc(F)c(Cl)c2)N(C)S(=O)(=O)N1)c1ccc(C(F)(F)F)cc1` (single isomer, unassigned) [493-R-ISOMER-B] the EC50 [1] was 100 to 10000 nM.
For `C[C@H](NC(=O)C1CC(C(=O)Nc2ccc(F)c(Cl)c2)N(C)S(=O)(=O)N1)c1ccc(C(F)(F)F)cc1` (single isomer, unassigned) [493-S-ISOMER-A], the EC50 [1] was < 50 nM.
For `COc1ccc2nc(CNC(=O)C3CC(C(=O)Nc4ccc(F)c(Cl)c4)N(C)S(=O)(=O)N3)sc2c1` (single isomer, unassigned) [1011-ISOMER-A, N3-(3-Chloro-4-fluoro-phenyl)-N5-[(6-methoxy-1,3-benzothiazol-2-yl)methyl]-2-methyl-1,1-dioxo-1,2,6-thiadiazinane-3,5-dicarboxamide], the EC50 was 100 to 10000 nM.
With `COc1ccc2nc(CNC(=O)C3CC(C(=O)Nc4ccc(F)c(Cl)c4)N(C)S(=O)(=O)N3)sc2c1` (single isomer, unassigned) [1011-ISOMER-B, N3-(3-Chloro-4-fluoro-phenyl)-N5-[(6-methoxy-1,3-benzothiazol-2-yl)methyl]-2-methyl-1,1-dioxo-1,2,6-thiadiazinane-3,5-dicarboxamide] the EC50 [1] was < 50 nM.
For `CN1C(C(=O)Nc2ccc(F)c(Cl)c2)CC(C(=O)NC2CCN(c3ccnc(Cl)c3)CC2)NS1(=O)=O` (single isomer, unassigned) [1012-ISOMER-A, N3-(3-Chloro-4-fluoro-phenyl)-N5-[1-(2-chloro-4-pyridyl)-4-piperidyl]-2-methyl-1,1-dioxo-1,2,6-thiadiazinane-3,5-dicarboxamide], the EC50 [1] was < 50 nM.
For `CN1C(C(=O)Nc2ccc(F)c(Cl)c2)CC(C(=O)NC2CCN(c3ccnc(Cl)c3)CC2)NS1(=O)=O` (single isomer, unassigned) [1012-ISOMER-B, N3-(3-Chloro-4-fluoro-phenyl)-N5-[1-(2-chloro-4-pyridyl)-4-piperidyl]-2-methyl-1,1-dioxo-1,2,6-thiadiazinane-3,5-dicarboxamide], the EC50 was 50 to 100 nM.
With `CN1C(C(=O)Nc2ccc(F)c(Cl)c2)CC(C(=O)NC(c2ccccc2)c2ccccc2)NS1(=O)=O` (single isomer, unassigned) [1014-ISOMER-A, N5-benzhydryl-N3-(3-Chloro-4-fluoro-phenyl)-2-methyl-1,1-dioxo-1,2,6-thiadiazinane-3,5-dicarboxamide] the EC50 [1] was < 50 nM.
Work on `CN1C(C(=O)Nc2ccc(F)c(Cl)c2)CC(C(=O)NC(c2ccccc2)c2ccccc2)NS1(=O)=O` (single isomer, unassigned) [1014-ISOMER-B, N5-benzhydryl-N3-(3-Chloro-4-fluoro-phenyl)-2-methyl-1,1-dioxo-1,2,6-thiadiazinane-3,5-dicarboxamide] yielded an EC50 of 100 to 10000 nM.
For `Cc1nc(-c2ccccc2Cl)sc1CNC(=O)C1CC(C(=O)Nc2ccc(F)c(Cl)c2)N(C)S(=O)(=O)N1` (single isomer, unassigned) [1015-ISOMER-A, N3-(3-Chloro-4-fluoro-phenyl)-N5-[[2-(2-chlorophenyl)-4-methyl-thiazol-5-yl]methyl]-2-methyl-1,1-dioxo-1,2,6-thiadiazinane-3,5-dicarboxamide], the EC50 [1] was < 50 nM.
For `Cc1nc(-c2ccccc2Cl)sc1CNC(=O)C1CC(C(=O)Nc2ccc(F)c(Cl)c2)N(C)S(=O)(=O)N1` (single isomer, unassigned) [1015-ISOMER-B, N3-(3-Chloro-4-fluoro-phenyl)-N5-[[2-(2-chlorophenyl)-4-methyl-thiazol-5-yl]methyl]-2-methyl-1,1-dioxo-1,2,6-thiadiazinane-3,5-dicarboxamide], the EC50 was 50 to 100 nM.
With `Cc1nc(-c2ccccc2F)sc1CN(C(=O)C1CC(C(N)=O)NS(=O)(=O)N1C)c1ccc(F)c(Cl)c1` (single isomer, unassigned) [1016-ISOMER-A, N3-(3-chloro-4-fluoro-phenyl)-N-[[2-(2-fluorophenyl)-4-methyl-thiazol-5-yl]methyl]-2-methyl-1,1-dioxo-1,2,6-thiadiazinane-3,5-dicarboxamide] the EC50 [1] was < 50 nM.
